According to ChEMBL document CHEMBL1201862, “PubChem BioAssay data set” (2004):
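Protocol summary: plate cells (96-well), add compound at 5 concentrations, incubate 48 h, interpolate endpoints linearly. The concentration for 50% growth inhibition is given as GI50.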 The source made the active and inactive calls. No stated cut-off is given here; in the data, active = GI50 up to about 1.1 µM and inactive = higher.

What was measured:
Assay in all cases: inhibition of tumour cell growth, NCI panel, 48 h
[1] = test system: 786-0
[2] = test system: A549
[3] = test system: ACHN
[4] = test system: CAKI-1
[5] = test system: CCRF-CEM
[6] = test system: COLO 205
[7] = test system: DMS-273
[8] = test system: EKVX
[9] = test system: HCC 2998
[10] = test system: HCT-116
[11] = test system: HCT-15
[12] = test system: HOP-18
[13] = test system: HOP-62
[14] = test system: HOP-92
[15] = test system: HT-29
[16] = test system: IGROV-1
[17] = test system: K562
[18] = test system: KM-20L2
[19] = test system: KM12
[20] = test system: LOX IMVI
[21] = test system: LXFL 529
[22] = test system: M14
[23] = test system: M19-MEL
[24] = test system: MOLT-4
[25] = test system: Malme-3M
[26] = test system: NCI-H226
[27] = test system: NCI-H23
[28] = test system: NCI-H460
[29] = test system: NCI-H522
[30] = test system: OVCAR-3
[31] = test system: OVCAR-4
[32] = test system: OVCAR-5
[33] = test system: OVCAR-8
[34] = test system: RPMI-8226
[35] = test system: RXF 393
[36] = test system: SF-268
[37] = test system: SF-295
[38] = test system: SF-539
[39] = test system: SK-MEL-2
[40] = test system: SK-MEL-5
[41] = test system: SK-OV-3
[42] = test system: SN12C
[43] = test system: SNB-19
[44] = test system: SNB-75
[45] = test system: SNB-78
[46] = test system: SR
[47] = test system: SW-620
[48] = test system: TK-10
[49] = test system: U-251
[50] = test system: UACC-257
[51] = test system: UACC-62
[52] = test system: UO-31
[53] = test system: XF498
[54] = test system: A498
[55] = test system: BT-549
[56] = test system: DLD-1
[57] = test system: DMS-114
[58] = test system: DU-145
[59] = test system: HL-60
[60] = test system: Hs-578T
[61] = test system: MCF7
[62] = test system: MDA-MB-231
[63] = test system: MDA-MB-435
[64] = test system: MDA-N
[65] = test system: NCI/ADR-RES
[66] = test system: PC-3
[67] = test system: SK-MEL-28
[68] = test system: T47D

## CC1OC(=O)C(O)=C1O (centres undefined)
[1]
  GI50: > 100 µM (inactive)
[2]
  GI50: > 100 µM (inactive)
[3]
  GI50: > 100 µM (inactive)
[4]
  GI50: > 100 µM (inactive)
[5]
  GI50: > 100 µM (inactive)
[6]
  GI50: > 100 µM (inactive)
[7]
  GI50: > 100 µM (inactive)
[8]
  GI50: > 100 µM (inactive)
[9]
  GI50: > 100 µM (inactive)
[10]
  GI50: > 100 µM (inactive)
[11]
  GI50: > 100 µM
[12]
  GI50: > 100 µM (inactive)
[13]
  GI50: > 100 µM (inactive)
[14]
  GI50: > 100 µM (inactive)
[15]
  GI50: > 100 µM (inactive)
[16]
  GI50: > 100 µM (inactive)
[17]
  GI50: > 100 µM (inactive)
[18]
  GI50: > 100 µM (inactive)
[19]
  GI50: > 100 µM (inactive)
[20]
  GI50: > 100 µM (inactive)
[21]
  GI50: > 100 µM (inactive)
[22]
  GI50: > 100 µM (inactive)
[23]
  GI50: > 100 µM (inactive)
[24]
  GI50: > 100 µM (inactive)
[25]
  GI50: > 100 µM (inactive)
[26]
  GI50: > 100 µM (inactive)
[27]
  GI50: > 100 µM (inactive)
[28]
  GI50: > 100 µM (inactive)
[29]
  GI50: > 100 µM (inactive)
[30]
  GI50: > 100 µM (inactive)
[31]
  GI50: > 100 µM (inactive)
[32]
  GI50: > 100 µM (inactive)
[33]
  GI50: > 100 µM (inactive)
[34]
  GI50: > 100 µM (inactive)
[35]
  GI50: > 100 µM (inactive)
[36]
  GI50: 47.2 µM (inactive)
[37]
  GI50: > 100 µM (inactive)
[38]
  GI50: > 100 µM (inactive)
[39]
  GI50: > 100 µM (inactive)
[40]
  GI50: > 100 µM (inactive)
[41]
  GI50: > 100 µM (inactive)
[42]
  GI50: > 100 µM (inactive)
[43]
  GI50: > 100 µM (inactive)
[44]
  GI50: > 100 µM (inactive)
[45]
  GI50: > 100 µM (inactive)
[46]
  GI50: > 100 µM (inactive)
[47]
  GI50: > 100 µM (inactive)
[48]
  GI50: > 100 µM (inactive)
[49]
  GI50: > 100 µM (inactive)
[50]
  GI50: > 100 µM (inactive)
[51]
  GI50: > 100 µM (inactive)
[52]
  GI50: > 100 µM (inactive)
[53]
  GI50: > 100 µM (inactive)

## CC1(C)N=C(N)N=C(N)N1c1ccc(CCCCc2ccc(S(=O)(=O)F)cc2Cl)c(Cl)c1
[1]
  GI50: 0.186 µM (active)
[54]
  GI50: 37.2 µM (inactive)
[2]
  GI50: 0.706 µM (active)
[3]
  GI50: 2.22 µM (inactive)
[55]
  GI50: 5.26 µM (inactive)
[4]
  GI50: 9.55 µM (inactive)
[5]
  GI50: 1.62 µM (inactive)
[6]
  GI50: 5.85 µM (inactive)
[56]
  GI50: 1.57 µM (inactive)
[57]
  GI50: 0.458 µM (active)
[7]
  GI50: 0.352 µM (active)
[58]
  GI50: 2.85 µM (inactive)
[8]
  GI50: 36.2 µM (inactive)
[9]
  GI50: 5.04 µM (inactive)
[10]
  GI50: 1.03 µM (active)
[11]
  GI50: 2.72 µM
[59]
  GI50: 0.366 µM (active)
[12]
  GI50: 53.7 µM (inactive)
[13]
  GI50: 9.35 µM (inactive)
[14]
  GI50: 4.18 µM (inactive)
[15]
  GI50: 1.53 µM (inactive)
[60]
  GI50: 74 µM (inactive)
[16]
  GI50: 0.39 µM (active)
[17]
  GI50: 0.425 µM (active)
[18]
  GI50: 6.76 µM (inactive)
[19]
  GI50: 2.52 µM (inactive)
[20]
  GI50: 1.75 µM (inactive)
[22]
  GI50: 1.63 µM (inactive)
[61]
  GI50: 2.39 µM (inactive)
[62]
  GI50: 10.5 µM (inactive)
[63]
  GI50: 3.95 µM (inactive)
[64]
  GI50: 0.916 µM (active)
[24]
  GI50: 0.995 µM (active)
[25]
  GI50: 4.05 µM (inactive)
[26]
  GI50: 18.5 µM (inactive)
[27]
  GI50: 4.07 µM (inactive)
[28]
  GI50: 0.266 µM (active)
[29]
  GI50: 4.68 µM (inactive)
[65]
  GI50: 143 µM (inactive)
[30]
  GI50: 5.71 µM (inactive)
[31]
  GI50: 37.2 µM (inactive)
[32]
  GI50: 17.2 µM (inactive)
[33]
  GI50: 4.46 µM (inactive)
[66]
  GI50: 1.11 µM (active)
[34]
  GI50: 3.05 µM (inactive)
[35]
  GI50: 14.2 µM (inactive)
[36]
  GI50: 0.984 µM (active)
[37]
  GI50: 1.84 µM (inactive)
[38]
  GI50: 1.67 µM (inactive)
[67]
  GI50: 4.93 µM (inactive)
[39]
  GI50: 8.34 µM (inactive)
[40]
  GI50: 1.05 µM (active)
[41]
  GI50: 106 µM (inactive)
[42]
  GI50: 1.16 µM (inactive)
[43]
  GI50: 3.64 µM (inactive)
[44]
  GI50: 9.23 µM (inactive)
[45]
  GI50: 11.6 µM (inactive)
[46]
  GI50: 0.207 µM (active)
[47]
  GI50: 2.7 µM (inactive)
[68]
  GI50: 10.5 µM (inactive)
[48]
  GI50: 27.7 µM (inactive)
[49]
  GI50: 1.02 µM (active)
[50]
  GI50: 5.56 µM (inactive)
[51]
  GI50: 0.258 µM (active)
[52]
  GI50: 36.1 µM (inactive)
[53]
  GI50: 1.49 µM (inactive)
